# Assay results: patent US9670213B2, “Pteridine ketone derivative and applications thereof as EGFR, BLK, and FLT3 inhibitor” (EAST CHINA UNIVERSITY OF SCIENCE AND TECHNOLOGY, priority 2012, dated 2017)
# What was measured:
# JAK2 = JAK2 (Homo sapiens (Human), UniProt O60674); assay: Kinase selectivity analysis (Caliper mobility shift assay); type: biochemical; details: for inhibition at 1 µM: read-out: % inhibition (1 μM), JAK2, 1 μM; for inhibition at 10 µM: read-out: % inhibition (10 μM), JAK2, 10 μM
# Experimental: (§1) Kinase selectivity analysis: kinase selectivity experiment was performed by Shanghai ChemPartner using Caliper assay screening platform. All of kinases and other materials were purchased from commercial companies.
# (§2) 3. Preparation of assay plate: 5 μL of solution from each well of the 96-well temporary plate was added into a 384-well plate, and the experiment was independently repeated.
# (§3) 5. Caliper readings: experimental data were collected on Caliper.
# (§4) 6. Curve fitting: 1) conversion data were replicated from Caliper program. 2) the conversion value was converted into inhibition rate, inhibition rate %=(maximum−conversion value)/(maximum−minimum)*100, wherein “maximum” represents DMSO control, and minimum represents the low control.
# C-MET = C-MET (Homo sapiens (Human), UniProt P08581); assay: as above; type: biochemical; details: for inhibition at 1 µM: read-out: % inhibition (1 μM), 1 μM; for inhibition at 10 µM: read-out: % inhibition (10 μM), 10 μM
# Experimental: as §1, §2, §3, §4
# CDK2 = CDK2 (Homo sapiens (Human), UniProt P24941); assay: as above; type: biochemical; details: for inhibition at 1 µM: read-out: % inhibition (1 μM), CDK2, 1 μM; for inhibition at 10 µM: read-out: % inhibition (10 μM), CDK2, 10 μM
# Experimental: as §1, §2, §3, §4
# FGFR1 = FGFR1 (Homo sapiens (Human), UniProt P11362); assay: as above; type: biochemical; details: for inhibition at 1 µM: read-out: % inhibition (1 μM), FGFR1, 1 μM; for inhibition at 10 µM: read-out: % inhibition (10 μM), FGFR1, 10 μM
# Experimental: as §1, §2, §3, §4
# PDGFRa = PDGFRa (Homo sapiens (Human), UniProt P16234); assay: as above; type: biochemical; details: for inhibition at 1 µM: read-out: % inhibition (1 μM), 1 μM; for inhibition at 10 µM: read-out: % inhibition (10 μM), 10 μM
# Experimental: as §1, §2, §3, §4
# P38a = P38a (Homo sapiens (Human), UniProt Q16539); assay: as above; type: biochemical; details: for inhibition at 1 µM: read-out: % inhibition (1 μM), 1 μM; for inhibition at 10 µM: read-out: % inhibition (10 μM), 10 μM
# Experimental: as §1, §2, §3, §4
# HER2 = HER2 (Homo sapiens (Human), UniProt P04626); assay: as above; type: biochemical; details: for inhibition at 1 µM: read-out: % inhibition (1 μM), HER2, 1 μM; for inhibition at 10 µM: read-out: % inhibition (10 μM), HER2, 10 μM
# Experimental: as §1, §2, §3, §4
# ERK1 = ERK1 (Homo sapiens (Human), UniProt P27361); assay: as above; type: biochemical; details: for inhibition at 1 µM: read-out: % inhibition (1 μM), ERK1, 1 μM; for inhibition at 10 µM: read-out: % inhibition (10 μM), ERK1, 10 μM
# Experimental: as §1, §2, §3, §4
# FLT1 = FLT1 (Homo sapiens (Human), UniProt P17948); assay: as above; type: biochemical; details: for inhibition at 1 µM: read-out: % inhibition (1 μM), FLT1, 1 μM; for inhibition at 10 µM: read-out: % inhibition (10 μM), FLT1, 10 μM
# Experimental: as §1, §2, §3, §4
# GSK3b = GSK3b (Homo sapiens (Human), UniProt P49841); assay: as above; type: biochemical; details: for inhibition at 1 µM: read-out: % inhibition (1 μM), 1 μM; for inhibition at 10 µM: read-out: % inhibition (10 μM), 10 μM
# Experimental: as §1, §2, §3, §4
# IKKB = IKKB (Homo sapiens (Human), UniProt O14920); assay: as above; type: biochemical; details: for inhibition at 1 µM: read-out: % inhibition (1 μM), 1 μM; for inhibition at 10 µM: read-out: % inhibition (10 μM), 10 μM
# Experimental: as §1, §2, §3, §4
# PKACa = PKACa (Homo sapiens (Human), UniProt P17612); assay: as above; type: biochemical; details: for inhibition at 1 µM: read-out: % inhibition (1 μM), 1 μM; for inhibition at 10 µM: read-out: % inhibition (10 μM), 10 μM
# Experimental: as §1, §2, §3, §4
# FLT3 = FLT3 (Homo sapiens (Human), UniProt P36888); assay: FLT3 kinase activity assay (Caliper); type: biochemical; details: read-out: Inhibitory activity on kinase (IC50, nM) FLT3
# Experimental: Preparation of 1× kinase matrix buffer and stop buffer.
# Preparation of compound solution. The compound was dissolved in 100% DMSO to a concentration, which was 50 times of the final highest inhibiting-concentration. 100 μL of the compound solution as said above was transferred into wells of 96-well plate. The above compound solution was sequentially diluted to the final desired concentration. In two blank wells of same 96-well plate, 100 μL of 100% DMSO was added as no-compound and no-kinase control, and this plate was used as the original plate.
# Preparation of intermediate plate. 10 μL of compound solution was transferred from the original plate to another 96-well plate as the intermediate plate; 90 μL of 1× kinase buffer was added into each well of the intermediate plate, and the intermediate plate was shaken for 10 min.
# Preparation of assay plate. 5 μL of solution from each well of intermediate plate was added into a 384-well plate, and repeated controls were set.
# Kinase reaction. 2.5× kinase solution and 2.5× peptide solution were prepared. 2.5× kinase solution was transferred into assay plate. Assay plate comprised 5 μL of the compound solution in 10% DMSO. 10 μL of 2.5× kinase solution was added in each well of 384-well assay plate. […] 2.5× peptide solution was added into each well. After incubated at 28° C. for an appropriate time, 25 μL of stop buffer was added to quench the reaction. Experimental data were collected in Caliper. Curve was fitted.
# [1] = test system: HCC827 (non-small cell lung cancer cells, EGFR del E746-A750); assay: Cell proliferation and growth inhibition analysis; type: cell-based; details: Homo sapiens, 72 hours, read-out: Inhibitory activity on cell proliferation (IC50, μM) HCC827
# Experimental: (§5) Cell proliferation was evaluated by MTS assay. Cells were exposed to the process conditions for 72 hours, and the number of cells for each cell line used in the experiment was adjusted according to the absorbance value (absorbance value at 490 nm was 1.3-2.2). 6 concentration gradients (0.1 nM-10 μM) were set for the compounds to be tested, with six parallel controls for each concentration.
# (§6) H1975, HCC827, A549, BT474, MCF-7, SK-BR-3 cells were cultured in the corresponding medium. Upon recovery, the cells were passaged at least two times and then used in experiments. Cells in Log phase were trypsinized and resuspended in the medium. H1975 (1000 cells per well), BT474 (1500 cells per well), MCF-7 (1500 cells per well), HCC827 (2000 cells per well), SK-BR-3 (2000 cells per well), A549 (2000 cells per well) were seeded into 96-well plates, the volume was 100 μL, and 6 rows and 7 columns were set. The plate was placed in an incubator at 37° C. of 5% carbon dioxide overnight. Compounds were dissolved in DMSO to obtain the concentration of […], and then gradually diluted to obtain the concentration of compound as […], 0.1 μM, 0.01 μM, 0.001 μM, 0.0001 μM. 2 μL of compound solution was added into 998 μL of medium, and the resulting mixture was thoroughly mixed. 100 μL of mixture was added into 96-well plate. […] After the cells were cultured for 68 hours, 20 μL of MTT (5 mg/mL) was added. After 4 hours, the supernatant was discarded and 150 μL of DMSO was added. The resulting system was shaken for 10 minutes, and the plate was read with Synergy HT (Bio TeK) (OD490). The data was calculated by GraphPad Prism version 4.0, and IC50 was obtained by non-linear regression model using dose-response curve.
# [2] = test system: H1975 (non-small cell lung cancer cells, EGFR L858R/T790M); assay: Cell proliferation and growth inhibition analysis; type: cell-based; details: Homo sapiens, NCI-H1975, 72 hours, read-out: Inhibitory activity on cell proliferation (IC50, μM) H1975
# Experimental: as §5, §6
# GSK3b, sequence (P49841 whole entry, species assumed): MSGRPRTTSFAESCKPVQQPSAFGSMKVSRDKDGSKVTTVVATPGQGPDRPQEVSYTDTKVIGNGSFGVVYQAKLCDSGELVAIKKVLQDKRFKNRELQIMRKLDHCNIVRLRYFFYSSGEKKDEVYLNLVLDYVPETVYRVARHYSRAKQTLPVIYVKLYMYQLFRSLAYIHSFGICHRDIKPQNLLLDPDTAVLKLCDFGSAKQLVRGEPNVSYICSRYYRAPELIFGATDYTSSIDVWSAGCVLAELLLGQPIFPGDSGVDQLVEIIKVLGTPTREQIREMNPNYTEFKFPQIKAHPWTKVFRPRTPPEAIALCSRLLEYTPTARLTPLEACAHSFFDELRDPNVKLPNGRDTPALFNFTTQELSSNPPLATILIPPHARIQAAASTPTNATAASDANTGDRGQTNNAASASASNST
# P38a, sequence (Q16539 whole entry): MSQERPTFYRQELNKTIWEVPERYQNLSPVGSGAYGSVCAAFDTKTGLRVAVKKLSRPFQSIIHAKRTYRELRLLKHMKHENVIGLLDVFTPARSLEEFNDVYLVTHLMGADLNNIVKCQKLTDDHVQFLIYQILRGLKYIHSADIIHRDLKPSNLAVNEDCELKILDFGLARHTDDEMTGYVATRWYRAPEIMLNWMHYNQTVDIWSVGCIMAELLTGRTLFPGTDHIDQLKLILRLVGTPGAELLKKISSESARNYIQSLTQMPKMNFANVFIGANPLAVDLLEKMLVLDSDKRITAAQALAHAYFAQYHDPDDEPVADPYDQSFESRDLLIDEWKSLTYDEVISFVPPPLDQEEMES
# IKKB, sequence (O14920 whole entry, species assumed): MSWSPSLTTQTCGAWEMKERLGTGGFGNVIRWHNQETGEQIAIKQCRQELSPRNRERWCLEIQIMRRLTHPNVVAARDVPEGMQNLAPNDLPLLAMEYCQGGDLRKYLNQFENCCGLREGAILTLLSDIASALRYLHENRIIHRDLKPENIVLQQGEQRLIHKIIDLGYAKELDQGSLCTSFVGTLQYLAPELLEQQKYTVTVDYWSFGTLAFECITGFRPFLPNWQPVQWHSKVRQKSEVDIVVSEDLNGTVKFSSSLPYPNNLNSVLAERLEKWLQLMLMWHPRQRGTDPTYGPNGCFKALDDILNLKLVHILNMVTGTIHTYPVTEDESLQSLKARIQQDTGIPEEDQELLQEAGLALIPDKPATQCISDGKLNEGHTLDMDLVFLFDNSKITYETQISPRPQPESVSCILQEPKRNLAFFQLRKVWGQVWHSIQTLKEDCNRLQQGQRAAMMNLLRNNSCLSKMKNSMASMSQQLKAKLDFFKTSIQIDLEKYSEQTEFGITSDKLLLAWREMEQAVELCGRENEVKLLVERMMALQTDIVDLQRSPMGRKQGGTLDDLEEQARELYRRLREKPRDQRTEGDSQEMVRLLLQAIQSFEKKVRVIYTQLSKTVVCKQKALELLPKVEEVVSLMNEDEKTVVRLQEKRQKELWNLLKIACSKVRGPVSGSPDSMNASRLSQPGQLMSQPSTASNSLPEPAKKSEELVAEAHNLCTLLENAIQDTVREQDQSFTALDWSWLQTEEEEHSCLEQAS
# ERK1, sequence (P27361 whole entry, species assumed): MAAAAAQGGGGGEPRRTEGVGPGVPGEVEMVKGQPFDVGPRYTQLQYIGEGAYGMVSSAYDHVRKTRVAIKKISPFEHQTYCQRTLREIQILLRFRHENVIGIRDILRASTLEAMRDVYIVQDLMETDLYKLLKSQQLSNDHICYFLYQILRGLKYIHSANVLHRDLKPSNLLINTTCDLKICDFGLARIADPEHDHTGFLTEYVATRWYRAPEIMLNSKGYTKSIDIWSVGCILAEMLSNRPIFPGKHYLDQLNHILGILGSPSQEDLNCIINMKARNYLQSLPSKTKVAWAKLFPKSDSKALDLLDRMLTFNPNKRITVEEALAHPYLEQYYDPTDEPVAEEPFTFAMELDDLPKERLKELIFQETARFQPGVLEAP
# FGFR1, sequence (P11362 22-822, species assumed): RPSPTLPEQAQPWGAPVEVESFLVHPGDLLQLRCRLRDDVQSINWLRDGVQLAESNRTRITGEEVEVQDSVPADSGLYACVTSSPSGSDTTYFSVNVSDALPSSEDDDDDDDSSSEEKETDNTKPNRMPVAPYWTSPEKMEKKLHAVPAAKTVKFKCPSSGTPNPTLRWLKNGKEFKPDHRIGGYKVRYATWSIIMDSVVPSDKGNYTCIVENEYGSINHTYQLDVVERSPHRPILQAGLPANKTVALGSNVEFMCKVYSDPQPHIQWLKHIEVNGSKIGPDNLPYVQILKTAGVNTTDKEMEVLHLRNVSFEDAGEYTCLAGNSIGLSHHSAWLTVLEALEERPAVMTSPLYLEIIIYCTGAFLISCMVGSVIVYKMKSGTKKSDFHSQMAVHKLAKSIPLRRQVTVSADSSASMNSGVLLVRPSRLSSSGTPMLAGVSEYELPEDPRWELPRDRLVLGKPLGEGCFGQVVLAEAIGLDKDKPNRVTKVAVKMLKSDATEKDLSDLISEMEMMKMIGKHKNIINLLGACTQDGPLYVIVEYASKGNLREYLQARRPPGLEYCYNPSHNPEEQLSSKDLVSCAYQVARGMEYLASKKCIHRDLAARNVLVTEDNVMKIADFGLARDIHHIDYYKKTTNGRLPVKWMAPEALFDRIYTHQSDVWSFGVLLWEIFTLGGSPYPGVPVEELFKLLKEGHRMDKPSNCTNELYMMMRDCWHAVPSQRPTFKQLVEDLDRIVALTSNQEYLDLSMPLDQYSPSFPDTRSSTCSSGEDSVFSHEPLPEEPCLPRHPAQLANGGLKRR
# C-MET, sequence (P08581 25-1390): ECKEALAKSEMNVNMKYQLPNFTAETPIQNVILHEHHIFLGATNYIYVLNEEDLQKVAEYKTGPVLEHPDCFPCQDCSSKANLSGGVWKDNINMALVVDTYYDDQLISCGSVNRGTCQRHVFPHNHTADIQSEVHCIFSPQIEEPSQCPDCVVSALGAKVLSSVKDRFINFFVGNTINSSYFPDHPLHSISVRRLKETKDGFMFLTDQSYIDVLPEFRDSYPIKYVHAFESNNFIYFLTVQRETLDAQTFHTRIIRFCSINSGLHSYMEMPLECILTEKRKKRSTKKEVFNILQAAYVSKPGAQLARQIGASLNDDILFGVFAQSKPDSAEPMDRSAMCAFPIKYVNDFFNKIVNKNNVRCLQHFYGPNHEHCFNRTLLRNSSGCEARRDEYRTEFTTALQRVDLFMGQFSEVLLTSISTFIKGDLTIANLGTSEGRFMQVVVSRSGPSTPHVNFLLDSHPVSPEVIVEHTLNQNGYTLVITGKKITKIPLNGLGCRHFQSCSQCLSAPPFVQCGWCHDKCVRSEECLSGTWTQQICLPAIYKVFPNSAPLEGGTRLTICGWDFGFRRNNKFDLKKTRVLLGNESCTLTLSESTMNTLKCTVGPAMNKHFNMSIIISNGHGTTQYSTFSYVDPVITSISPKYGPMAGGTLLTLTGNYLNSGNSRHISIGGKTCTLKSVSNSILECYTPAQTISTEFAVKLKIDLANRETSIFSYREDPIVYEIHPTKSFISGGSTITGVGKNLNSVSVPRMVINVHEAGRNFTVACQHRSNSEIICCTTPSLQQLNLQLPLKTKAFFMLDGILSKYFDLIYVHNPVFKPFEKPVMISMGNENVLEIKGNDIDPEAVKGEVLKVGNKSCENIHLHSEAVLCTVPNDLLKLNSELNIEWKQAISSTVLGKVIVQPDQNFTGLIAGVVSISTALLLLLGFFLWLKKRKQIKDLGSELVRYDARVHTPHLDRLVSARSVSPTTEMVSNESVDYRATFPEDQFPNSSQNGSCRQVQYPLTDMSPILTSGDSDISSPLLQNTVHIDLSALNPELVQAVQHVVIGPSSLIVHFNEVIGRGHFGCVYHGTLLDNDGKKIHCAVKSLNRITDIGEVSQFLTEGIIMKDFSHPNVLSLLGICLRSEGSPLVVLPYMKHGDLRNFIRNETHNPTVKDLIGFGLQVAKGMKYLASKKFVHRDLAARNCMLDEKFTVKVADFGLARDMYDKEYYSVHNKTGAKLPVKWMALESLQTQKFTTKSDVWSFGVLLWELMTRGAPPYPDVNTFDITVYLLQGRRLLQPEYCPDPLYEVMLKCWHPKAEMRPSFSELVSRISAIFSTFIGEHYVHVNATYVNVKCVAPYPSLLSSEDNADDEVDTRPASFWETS
# FLT3, sequence (P36888 27-993): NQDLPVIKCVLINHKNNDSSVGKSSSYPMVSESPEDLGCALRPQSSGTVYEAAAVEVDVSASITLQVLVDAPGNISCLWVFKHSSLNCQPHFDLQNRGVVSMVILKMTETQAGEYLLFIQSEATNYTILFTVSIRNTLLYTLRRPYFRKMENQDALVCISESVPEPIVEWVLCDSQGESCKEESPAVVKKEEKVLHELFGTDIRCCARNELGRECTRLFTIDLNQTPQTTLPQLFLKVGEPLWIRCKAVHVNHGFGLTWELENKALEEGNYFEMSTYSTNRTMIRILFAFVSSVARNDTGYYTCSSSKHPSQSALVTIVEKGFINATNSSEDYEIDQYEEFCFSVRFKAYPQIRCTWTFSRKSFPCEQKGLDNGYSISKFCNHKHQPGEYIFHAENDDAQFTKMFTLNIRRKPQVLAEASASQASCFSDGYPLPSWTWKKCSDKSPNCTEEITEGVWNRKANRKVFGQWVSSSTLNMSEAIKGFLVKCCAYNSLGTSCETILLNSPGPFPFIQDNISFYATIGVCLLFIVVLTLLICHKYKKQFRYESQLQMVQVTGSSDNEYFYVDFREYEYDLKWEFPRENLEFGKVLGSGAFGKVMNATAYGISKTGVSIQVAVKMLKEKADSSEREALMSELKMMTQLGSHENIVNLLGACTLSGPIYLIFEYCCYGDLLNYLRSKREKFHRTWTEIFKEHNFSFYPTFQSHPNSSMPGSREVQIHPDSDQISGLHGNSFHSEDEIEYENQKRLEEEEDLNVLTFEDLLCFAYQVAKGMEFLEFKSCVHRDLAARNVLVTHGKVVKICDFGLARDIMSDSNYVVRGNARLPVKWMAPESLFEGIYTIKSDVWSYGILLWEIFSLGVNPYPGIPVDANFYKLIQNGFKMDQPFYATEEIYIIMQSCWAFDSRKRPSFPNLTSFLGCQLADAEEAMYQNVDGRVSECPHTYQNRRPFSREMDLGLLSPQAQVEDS
inhibition at 1 µM (JAK2) [%],inhibition at 10 µM (JAK2) [%],inhibition at 1 µM (C-MET) [%],inhibition at 10 µM (C-MET) [%],inhibition at 1 µM (CDK2) [%],inhibition at 10 µM (CDK2) [%],inhibition at 1 µM (FGFR1) [%],inhibition at 10 µM (FGFR1) [%],inhibition at 1 µM (PDGFRa) [%],inhibition at 10 µM (PDGFRa) [%],inhibition at 1 µM (P38a) [%],inhibition at 10 µM (P38a) [%],inhibition at 1 µM (HER2) [%],inhibition at 10 µM (HER2) [%],inhibition at 1 µM (ERK1) [%],inhibition at 10 µM (ERK1) [%],inhibition at 1 µM (FLT1) [%],inhibition at 10 µM (FLT1) [%],inhibition at 1 µM (GSK3b) [%],inhibition at 10 µM (GSK3b) [%],Compound,also measured
22,36,27,53,18,49,19,63,4.9,35,2.8,21,97,98,1.3,19,17,58,16,34,"C=CC(=O)Nc1cccc(-n2c(=O)cnc3cnc(Nc4ccc(N5CCN(C)CC5)cc4)nc32)c1 [Compound 020, N-(3-(2-(4-(4-methyl-1-piperazinyl)-phenylamino)-7-oxo-8(7H)-pteridin-yl)phenyl) acrylamide]",inhibition at 1 µM (IKKB): 9.4%; inhibition at 10 µM (IKKB): 2%; inhibition at 1 µM (PKACa): 15%; inhibition at 10 µM (PKACa): 4.7%; IC50 (FLT3): 322 nM; IC50 [1]: 0.002 µM; IC50 [2]: 0.043 µM
9.9,22,13,28,25,48,7.9,42,1.2,18,-5.6,1.2,89,100,11,-4,9.4,11,12,16,"C=CC(=O)Nc1cccc(-n2c(=O)cnc3cnc(Nc4ccc(N5CCN(C)CC5)cc4OC)nc32)c1 [Compound 032, N-(3-(2-(2-methoxy-4-(4-methyl-1-piperazinyl)-phenylamino)-7-oxo-8(7H)-pteridin-yl)phenyl)acrylamide]",inhibition at 1 µM (IKKB): -3.3%; inhibition at 10 µM (IKKB): -4.3%; inhibition at 1 µM (PKACa): 6.9%; inhibition at 10 µM (PKACa): 4%; IC50 (FLT3): 1170 nM; IC50 [1]: 0.004 µM; IC50 [2]: 0.038 µM
